Measurements published in US20240228504A1, “SUBSTITUTED TRICYCLIC AMIDES, ANALOGUES THEREOF, AND METHODS USING SAME” (Arbutus Biopharma Corporation, priority 2020, published 2024).

The compounds below were run on HBV rcDNA in HepDE19 cells (assay: HepDE19 assay with bDNA quantitation of HBV rcDNA). Settings: HepDE19 assay, inhibition of rcDNA formation, bDNA quantitation; read-out: DE-19bDNA EC50.
Type: cell-based, hepatitis B virus

`CN(C(=O)c1ccc2ncsc2c1)C1COCc2[nH]c(=O)c3cc(F)ccc3c21` (single isomer, unassigned) [Compound 447, N-(8-fluoro-6-oxo-1,4,5,6-tetrahydro-2H-pyrano[3,4-c]isoquinolin-1-yl)-N-methylbenzo[d]thiazole-6-carboxamide] and `CN(C(=O)c1ccc2cn[nH]c2c1)C1COCc2[nH]c(=O)c3cc(F)ccc3c21` (single isomer, unassigned) [Compound 470, N-(8-fluoro-6-oxo-1,4,5,6-tetrahydro-2H-pyrano[3,4-c]isoquinolin-1-yl)-N-methyl-1H-indazole-6-carboxamide] are within 1.5-fold of each other in EC50: 940 nM for the first, 1100 nM for the second.

`CN(C(=O)c1cc2cc(F)c(F)cc2[nH]1)C1COCc2nc(NCCN)c3cc(F)c(F)cc3c21` (single isomer, unassigned) [Compound 352, N-(6-((2-Aminoethyl)amino)-8,9-difluoro-1,4-dihydro-2H-pyrano[3,4-c]isoquinolin-1-yl)-5,6-difluoro-N-methyl-1H-indole-2-carboxamide] and `CN(C(=O)c1cc2cc(F)c(C(F)F)cc2[nH]1)C1COCc2[nH]c(=O)c3cc(F)ccc3c21` (single isomer, unassigned) [Compound 217, 6-(Difluoromethyl)-5-fluoro-N-(8-fluoro-6-oxo-1,4,5,6-tetrahydro-2H-pyrano[3,4-c]isoquinolin-1-yl)-N-methyl-1H-indole-2-carboxamide] are within 1.5-fold of each other in EC50: 590 nM for the first, 880 nM for the second.

First: CN(C(=O)c1cc2c(Cl)cccn2c1)C1COCc2[nH]c(=O)c3cc(F)c(F)cc3c21 (single isomer, unassigned) [Compound 17, 8-Chloro-N-(8,9-difluoro-6-oxo-1,4,5,6-tetrahydro-2H-pyrano[3,4-c]isoquinolin-1-yl)-N-methylindolizine-2-carboxamide]
Second: CN(C(=O)c1cc2c(F)cccn2c1)C1C[S+]([O-])Cc2[nH]c(=O)c3cc(F)c(F)cc3c21 (single isomer, unassigned) [Compound 149, N-(8,9-Difluoro-3-oxido-6-oxo-1,4,5,6-tetrahydro-2H-thiopyrano[3,4-c]isoquinolin-1-yl)-8-fluoro-N-methylindolizine-2-carboxamide]
The EC50 of the first is 13-fold higher: 1900 nM for the first, 150 nM for the second.

First: CN(C(=O)c1ccc2cccn2c1)C1CNCc2[nH]c(=O)c3cc(F)c(F)cc3c21 (single isomer, unassigned) [Compound 392, N-(8,9-difluoro-6-oxo-1,2,3,4,5,6-hexahydrobenzo[c][1,7]naphthyridin-1-yl)-N-methylindolizine-6-carboxamide]
Second: CN(C(=O)c1cc2sc(Cl)cc2[nH]1)C1CNCc2[nH]c(=O)c3cc(F)c(F)cc3c21 (single isomer, unassigned) [Compound 454, 2-chloro-N-(8,9-difluoro-6-oxo-1,2,3,4,5,6-hexahydrobenzo[c][1,7]naphthyridin-1-yl)-N-methyl-4H-thieno[3,2-b]pyrrole-5-carboxamide]
The EC50 of the first is 4.5-fold higher: 90 nM for the first, 20 nM for the second.

Going from `CN(C(=O)c1cc2c(C(F)F)c(F)ccc2[nH]1)C1CNCc2[nH]c(=O)c3cc(F)ccc3c21` (single isomer, unassigned) [Compound 272, 4-(Difluoromethyl)-5-fluoro-N-(8-fluoro-6-oxo-1,2,3,4,5,6-hexahydrobenzo[c][1,7]naphthyridin-1-yl)-N-methyl-1H-indole-2-carboxamide] to `CN(C(=O)c1cc2c(F)cccc2[nH]1)C1COCc2[nH]c(=O)c3cc(F)ccc3c21` (single isomer, unassigned) [Compound 20, 4-Fluoro-N-(8-fluoro-6-oxo-1,4,5,6-tetrahydro-2H-pyrano[3,4-c]isoquinolin-1-yl)-N-methyl-1H-indole-2-carboxamide], the EC50 falls from 70 nM to 20 nM (3.5-fold). The second is the more potent here.

Same assay, conditions: Hepatitis B virus, HepDE19, HepDE19 assay, inhibition of rcDNA formation, bDNA quantitation; read-out: DE-19bDNA EC50

First: CN(C(=O)c1cnn(C(F)(F)F)c1)[C@@H]1COCc2[nH]c(=O)c3cc(F)c(F)cc3c21 [Compound 197, (S)-N-(8,9-Difluoro-6-oxo-1,4,5,6-tetrahydro-2H-pyrano[3,4-c]isoquinolin-1-yl)-N-methyl-1-(trifluoromethyl)-1H-pyrazole-4-carboxamide]
Second: CN(C(=O)c1ccc(C(F)(F)F)cc1)[C@@H]1COCc2[nH]c(=O)c3cc(F)c(F)cc3c21 [Compound 98, (S)-N-(8,9-Difluoro-6-oxo-1,4,5,6-tetrahydro-2H-pyrano[3,4-c]isoquinolin-1-yl)-N-methyl-4-(trifluoromethyl)benzamide]
The EC50 of the first is 44-fold higher: 440 nM for the first, 10 nM for the second.

Going from `CN(C(=O)c1cccc(C(C)(C)O)c1)[C@@H]1COCc2[nH]c(=O)c3cc(F)c(F)cc3c21` [Compound 155, (S)-N-(8,9-Difluoro-6-oxo-1,4,5,6-tetrahydro-2H-pyrano[3,4-c]isoquinolin-1-yl)-3-(2-hydroxypropan-2-yl)-N-methylbenzamide] to `CN(C(=O)c1ccn2cccc2c1)[C@@H]1COCc2[nH]c(=O)c3cc(F)c(F)cc3c21` [Compound 228, (S)-N-(8,9-Difluoro-6-oxo-1,4,5,6-tetrahydro-2H-pyrano[3,4-c]isoquinolin-1-yl)-N-methylindolizine-7-carboxamide], the EC50 falls from 4490 nM to 60 nM (75-fold).

`CN(C(=O)c1cc2cc(F)c(C(F)F)cc2[nH]1)[C@@H]1CCCc2[nH]c(=O)c3cc(F)c(F)cc3c21` [Compound 482, (R)-N-(8,9-difluoro-6-oxo-1,2,3,4,5,6-hexahydrophenanthridin-1-yl)-6-(difluoromethyl)-5-fluoro-N-methyl-1H-indole-2-carboxamide] and `[2H][C@@]1(N(C(=O)c2cc3cc(F)c(C(F)F)cc3[nH]2)[13C]([2H])([2H])[2H])COCc2[nH]c(=O)c3cc(F)c(F)cc3c21` [Compound 515, (S)-N-(8,9-Difluoro-6-oxo-1,4,5,6-tetrahydro-2H-pyrano[3,4-c]isoquinolin-1-yl-1-d)-6-(difluoromethyl)-5-fluoro-N-(methyl-^13C-d3)-1H-indole-2-carboxamide] are the same in EC50: 10 nM for the first, 10 nM for the second.

First: Cc1cccc2[nH]c(C(=O)N(C)[C@@H]3CCCc4[nH]c(=O)c5cc(F)c(F)cc5c43)cc12 [Compound 484, (R)-N-(8,9-difluoro-6-oxo-1,2,3,4,5,6-hexahydrophenanthridin-1-yl)-N,4-dimethyl-1H-indole-2-carboxamide]
Second: COc1ccc2[nH]c(C(=O)N(C)[C@@H]3COCc4[nH]c(=O)c5cc(F)c(F)cc5c43)cc2c1 [Compound 324, (S)-N-(8,9-Difluoro-6-oxo-1,4,5,6-tetrahydro-2H-pyrano[3,4-c]isoquinolin-1-yl)-5-methoxy-N-methyl-1H-indole-2-carboxamide]
The EC50 of the first is 7-fold lower: 10 nM for the first, 70 nM for the second. The first is the more potent here.

Compared with `CN(C(=O)[C@H](O)c1ccccc1)[C@@H]1COCc2[nH]c(=O)c3cc(F)c(F)cc3c21` [Compound 96, (R)-N-((S)-8,9-Difluoro-6-oxo-1,4,5,6-tetrahydro-2H-pyrano[3,4-c]isoquinolin-1-yl)-2-hydroxy-N-methyl-2-phenylacetamide], `CN(C(=O)c1csc(Br)c1)[C@@H]1COCc2[nH]c(=O)c3cc(F)c(F)cc3c21` [Compound 194, (S)-5-Bromo-N-(8,9-difluoro-6-oxo-1,4,5,6-tetrahydro-2H-pyrano[3,4-c]isoquinolin-1-yl)-N-methylthiophene-3-carboxamide] is 140-fold lower in EC50: 10000 nM for the first, 70 nM for the second.

First: COc1n[nH]c2ccc(C(=O)N(C)[C@@H]3COCc4[nH]c(=O)c5cc(F)c(F)cc5c43)cc12 [Compound 369, (S)-N-(8,9-Difluoro-6-oxo-1,4,5,6-tetrahydro-2H-pyrano[3,4-c]isoquinolin-1-yl)-3-methoxy-N-methyl-1H-indazole-5-carboxamide]
Second: CN(C(=O)c1ccc2nn(C(F)F)c(Cl)c2c1)[C@@H]1COCc2[nH]c(=O)c3cc(F)c(F)cc3c21 [Compound 360, (S)-3-Chloro-N-(8,9-difluoro-6-oxo-1,4,5,6-tetrahydro-2H-pyrano[3,4-c]isoquinolin-1-yl)-2-(difluoromethyl)-N-methyl-2H-indazole-5-carboxamide]
The EC50 of the first is 51-fold higher: 6100 nM for the first, 120 nM for the second.

Compared with `CN(C(=O)c1ccc(C(F)(F)F)c(F)c1)[C@@H]1COCc2[nH]c(=O)c3cc(F)c(F)cc3c21` [Compound 74, (S)-N-(8,9-Difluoro-6-oxo-1,4,5,6-tetrahydro-2H-pyrano[3,4-c]isoquinolin-1-yl)-3-fluoro-N-methyl-4-(trifluoromethyl)benzamide], `CN(C(=O)c1ccc2c(Cl)nn(C(F)F)c2c1)[C@@H]1COCc2[nH]c(=O)c3cc(F)c(F)cc3c21` [Compound 357, (S)-3-Chloro-N-(8,9-difluoro-6-oxo-1,4,5,6-tetrahydro-2H-pyrano[3,4-c]isoquinolin-1-yl)-1-(difluoromethyl)-N-methyl-1H-indazole-6-carboxamide] is 3-fold higher in EC50: 10 nM for the first, 30 nM for the second. The first is the more potent here.

Going from `CN(C(=O)c1cccc(Oc2cccc(F)c2)c1)C1CNCc2[nH]c(=O)c3cc(F)c(F)cc3c21` (single isomer, unassigned) [Compound 339, N-(8,9-Difluoro-6-oxo-1,2,3,4,5,6-hexahydrobenzo[c][1,7]naphthyridin-1-yl)-3-(3-fluorophenoxy)-N-methylbenzamide] to `CN(C(=O)C(F)(F)c1ccc(Br)cc1)[C@@H]1COCc2[nH]c(=O)c3cc(F)c(F)cc3c21` [Compound 253, (S)-2-(4-Bromophenyl)-N-(8,9-difluoro-6-oxo-1,4,5,6-tetrahydro-2H-pyrano[3,4-c]isoquinolin-1-yl)-2,2-difluoro-N-methylacetamide], the EC50 falls from 25000 nM to 8000 nM (3.1-fold).

First: CN(C(=O)c1cnc(C(F)(F)F)c(Cl)c1)C1COCc2[nH]c(=O)c3cc(F)ccc3c21 (single isomer, unassigned) [Compound 378, 5-Chloro-N-(8-fluoro-6-oxo-1,4,5,6-tetrahydro-2H-pyrano[3,4-c]isoquinolin-1-yl)-N-methyl-6-(trifluoromethyl)nicotinamide]
Second: CN(C(=O)c1cc2n(c1)CCCC2)[C@@H]1COCc2[nH]c(=O)c3cc(F)c(F)cc3c21 [Compound 242, (S)-N-(8,9-Difluoro-6-oxo-1,4,5,6-tetrahydro-2H-pyrano[3,4-c]isoquinolin-1-yl)-N-methyl-5,6,7,8-tetrahydroindolizine-2-carboxamide]
The EC50 of the first is 170-fold higher: 18300 nM for the first, 110 nM for the second.
